Assay results reported in article PMC12683216, “Using High‐Throughput Screening to Identify Crosslinking Peptides That Control Cell‐Mediated Matrix Degradation” (Advanced Healthcare Materials, 2025).
Where a SMILES comes first, the peptide text is derived from it. [ ]: non-standard residue; d: D form. βAla = NCCC(=O)O

Experiments:
hMSCs = experiment: Cell growth and viability within peptide-crosslinked hydrogels; assay type: cell-based, human; conditions: 3.5% 8-arm PEG, 40% arms crosslinking peptide, 10% cyclic RGD, 20 million cells mL^−1, up to Day 7
Source text: (§1) Each of the peptides was then used to crosslink hydrogels containing hMSCs or hUVECs at 20 million cells mL^−1 and cultured for 1, 3, or 7 days. To maximize cell spreading, we made soft hydrogels that were 3.5% 8‐arm poly(ethylene glycol) (PEG) by weight. 40% of the arms were reacted with the crosslinking peptides, and 10% of the arms were functionalized with a cyclic RGD peptide for cell adhesion. […] This supports the inhibitor studies for the soluble peptides in which the MMP‐14 inhibitor completely abolished the degradation of the KLVAD‐LM peptide by hUVECs, but not the PanMMP peptide. (Figure 3C).
(§2) For all hydrogel studies, the total volume of hydrogel was 20 µL, made with 3.5% (wt/wt) PEG, 40% of the arms were functionalized with crosslinking peptides, and 10% were functionalized with cyclic‐RGD, with a final cell concentration of 20 million cells per mL. Briefly, the PEG was dissolved at 140 mg mL^−1 in PBS, the crosslinking peptides were dissolved at 22.4 mM in PBS, and the cyclic RGD was dissolved at 5.6 mM in PBS. hMSCs were harvested from T‐75 flasks. After centrifugation and pouring the supernatant liquid, the cells were resuspended at 80 000 000 or 4 000 000 cells mL^−1. The cyclic RGD and PEG PBS solutions were mixed at the ratio of 1:1. Add 10 µL of the PEG‐cyclic RGD mixer in the wells and incubate for 10 mins. The crosslinking peptides and cell solutions were mixed at a ratio of 1:1. 10 µL of the peptide‐cell mixture was pipetted into the PEG‐cyclic RGD mixer previously dropped in the wells. The solutions were pipetted until well mixed, and after 15 min in the incubator 1 mL of media was added into each well and kept in the incubator. For gels intended for imaging, 12 mm round glass coverslips were placed in each well of the 24‐well plates prior to hydrogel fabrication. For cell viability test, sylgard layers were prepared in 24 well plates to prevent unwanted cell growth on the bottom of the well wall. Sylgard kit Part A/Part B was mixed in a 10:1 ratio by volume, and the mixture was added to the 24 well plates such that the bottom of each well was completely covered by Sylgard. The plates were placed in a biosafety hood overnight with UV light on. For all studies, three technical replicates were done per condition, and the studies were repeated three times.
(§3) The hydrogels were washed with PBS three times and incubated in 4% formaldehyde in PBS for 20 min. The hydrogels were again washed with PBS three times, followed by an incubation in 0.25% Triton X‐100 in PBS solution for 20 min. The hydrogels were washed with PBS three times, followed by a 20‐min incubation of in 1% BSA in PBS. The gels were washed 3x in PBS, and 700 µL of Phalloidin/DAPI PBS staining solution (0.1% BSA, 1 µg mL^−1 DAPI, and 1 µg mL^−1 phalloidin‐iFluor 555) was added to each well, and it was incubated for 1 h in the dark at room temperature. The hydrogels were washed 3x, and 1 mL PBS was added to each well, and they were stored in a 4 °C until they were ready for imaging.
(§4) Hydrogels were imaged by confocal microscope (LSM 800, AxioObserver, EC Olan‐Neofluar 10x/0.3 objective). The 12 mm round slides with hydrogels were taken out of 24 well plates and flipped gel side down on round‐bottom slides. Confocal microscopy was carried out in the Z‐stack mode. Phalloidin was excited at 488 nm and recorded between 493 and 630 nm. DAPI was excited at 405 nm and recorded between 410 and 501 nm. Cells in each hydrogel were measured with ImageJ software according to the particle analysis results and then averaged to obtain the mean cell area in the hydrogels.
(§5) On Days 1, 3, and 7, the media from the wells was removed and 500 µL of a 10× diluted Alamar Blue stock solution in media was added to each well with hydrogels. Three wells without any cells were used for background subtraction. The gels were incubated for 4 h, at which time the absorbance was measured with a spectrophotometer at a wavelength of 579 nm (600 nm reference). […]

hUVECs = experiment: as above; assay type: cell-based, human; conditions: 3.5% 8-arm PEG, 40% arms crosslinking peptide, 10% cyclic RGD, 20 million cells mL^−1, up to Day 7
Source text: as §1, §2, §3, §4, §5

| SMILES | cell spreading, growth and viability of hMSCs in crosslinked hydrogels (hMSCs) | cell spreading, growth and viability of hUVECs in crosslinked hydrogels (hUVECs) |
| --- | --- | --- |
| CSCC[C@H](NC(=O)[C@H](CC(C)C)NC(=O)[C@H](CC(=O)O)NC(=O)[C@H](C)NC(=O)[C@@H](NC(=O)[C@H](CC(C)C)NC(=O)[C@H](CCCCN)NC(=O)CCNC(C)=O)C(C)C)C(=O)N[C@@H](C)C(=O)N[C@@H](CO)C(=O)N[C@@H](C)C(=O)N[C@@H](CCC(=O)O)C(=O)NCCC(N)=O [KLVAD-LM] (Ac-[βAla]KLVADLMASAE[βAla]-NH2) | supported cell spreading and growth | supported cell spreading and growth |
| CC(=O)NCCC(=O)N[C@@H](CCCCN)C(=O)N[C@@H](CC(C)C)C(=O)N[C@H](C(=O)N[C@@H](C)C(=O)N[C@@H](CC(=O)O)C(=O)N[C@@H](CC(N)=O)C(=O)N[C@@H](Cc1ccc(O)cc1)C(=O)N[C@@H](C)C(=O)N[C@@H](CO)C(=O)N[C@@H](C)C(=O)N[C@@H](CCC(=O)O)C(=O)NCCC(N)=O)C(C)C [KLVAD-NY] (Ac-[βAla]KLVADNYASAE[βAla]-NH2) | no detectable cells | only minimal cell spreading |
| CC(=O)NCCC(=O)N[C@@H](CCCCN)C(=O)N[C@@H](CC(C)C)C(=O)N[C@H](C(=O)N[C@@H](C)C(=O)N[C@@H](CC(=O)O)C(=O)N1CCC[C@H]1C(=O)N[C@@H](Cc1ccc(O)cc1)C(=O)N[C@@H](C)C(=O)N[C@@H](CO)C(=O)N[C@@H](C)C(=O)N[C@@H](CCC(=O)O)C(=O)NCCC(N)=O)C(C)C [KLVAD-PY] (Ac-[βAla]KLVADPYASAE[βAla]-NH2) | less cell spreading and viability | less cell spreading and viability |
